Assay results reported in patent US12280072B2, “Oligosaccharide compound for inhibiting intrinsic coagulation factor X-enzyme complex, and preparation method therefor and uses thereof” (Jiuzhitang Co., Ltd., priority 2017, dated 2025).

Key:
Type in all cases: biochemical
FXa (Homo sapiens) = molecular target: T1, FXa (Homo sapiens); experiment: AT-dependent Xa inhibitory activity assay; conditions: in presence of AT; for IC50: read-out: Drug concentration required to inhibit 50% of coagulation factor activity (IC50, ng/mL) Xa (AT)
T1 construct: 8 μg/mL FXa solution; purchased
Method: AT-dependent Xa inhibitory activity assay: Heparin […] kit was used for detection. To a 96-well plate, 30 μL of sample, control solution or Tris-HCl buffer (negative control) was added, then 30 μL of 1 IU/mL AT solution was added, mixed well and incubated at 37° C. for 1 min; and than 30 μL of 8 μg/mL FXa solution was added, mixed well and incubated at 37° C. for 1 min, then 30 μL of pre-warmed 1.25 mM Xa chromogenic substrate SXa-11 was added. OD405 was detected by a microplate reader.
(§1) Data processing: The average value of OD405 detected by the duplicated well was used as the detection value of the test sample and the reference of each concentration, and the slope of the linear fit between the detected value to the time value (the change rate of the absorbance value OD405/min) indicated enzymatic activity of coagulation factor. Taking the clotting factor activity of the negative control well as 100%, coagulation factor activity (percentage) in the presence of the test sample was calculated. The coagulation factor activity in the presence of the test sample was plotted against the concentration of the test sample, and fitted according to the following formula, to calculate the IC50 value: B=(IC50)^n/{(IC50)^n+[I]^n}
(§2) in the formula, B is the coagulation factor activity (percentage) in the presence of the test sample, [I] is the concentration of the test sample, IC50 is the half inhibitory concentration (concentration of the test sample required to inhibit 50% of the activity), and n is the Hill coefficient. • (4) Effect on surface activation and platelet activity: […]

human-controlled plasma [1] = experiment: Anticoagulant activity assay: APTT clotting time
Method: (§3) 8.2 Methods • (1) Preparation of sample solution: Oligosaccharide compounds A1˜A8, B1˜B11 and oligosaccharide mixtures C1, D1, D2 were all dissolved in Tris-HCl buffer and diluted to the desired series of solubility. • (2) Anticoagulant activity assay: 90 μL of human-controlled plasma was added to the sample or 10 μL of the control solution, and then the clotting time (APTT and PT) was detected by the MC-4000 coagulometer according to the method described in the APTT and PT kit instructions. • (3) Coagulation factor inhibitory activity analysis: […]

FIIa (Homo sapiens) [2] = molecular target: T2, FIIa (Homo sapiens); experiment: AT-dependent IIa inhibitory activity assay; conditions: in presence of AT; for IC50: read-out: Drug concentration required to inhibit 50% of coagulation factor activity (IC50, ng/mL) Ha (AT)
T2 construct: antithrombin (i.e., active coagulation factor IIa); purchased
Method: AT-dependent IIa inhibitory activity assay: Heparin Anti-FIIa kit was used for detection. To a 96-well plate, 30 μL of sample, control solution or Tris-HCl buffer (negative control) was added, and then 30 μL of 1 IU/mL AT solution was added, mixed well by shaking the plate and incubated at 37° C. for 2 min; 30 μL of 24 IU/mL FIIa solution was added, mixed well by shaking the plate and incubated for 2 min at 37° C., and then 30 μL of pre-warmed 1.25 mM FIIa specific chromogenic substrate CS-01 (38) was added, mixed well by shaking the plate. The OD405 was detected by a microplate reader and the IC50 value of FIIa inhibition of each sample was calculated.
as §1, §2
T2 sequence (P01008 33-464): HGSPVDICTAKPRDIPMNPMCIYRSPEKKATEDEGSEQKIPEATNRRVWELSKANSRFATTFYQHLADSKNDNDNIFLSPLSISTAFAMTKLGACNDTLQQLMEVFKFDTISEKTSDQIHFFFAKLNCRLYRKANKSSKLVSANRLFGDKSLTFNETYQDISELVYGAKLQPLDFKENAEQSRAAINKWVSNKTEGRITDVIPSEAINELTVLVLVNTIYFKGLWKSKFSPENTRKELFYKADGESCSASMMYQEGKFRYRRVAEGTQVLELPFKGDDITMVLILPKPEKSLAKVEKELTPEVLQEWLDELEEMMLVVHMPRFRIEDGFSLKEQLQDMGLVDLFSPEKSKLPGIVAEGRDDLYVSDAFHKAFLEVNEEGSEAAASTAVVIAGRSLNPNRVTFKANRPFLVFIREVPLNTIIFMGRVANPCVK

human-controlled plasma [3] = experiment: Anticoagulant activity assay: PT clotting time
Method: as §3

plasma = experiment: TT (thrombin time) clotting time
intrinsic factor Xase = molecular target: T3, intrinsic factor Xase (Homo sapiens, UniProt P00740); experiment: Xase inhibitory activity assay; conditions: for IC50: read-out: Drug concentration required to inhibit 50% of coagulation factor activity (IC50, ng/mL) Xase (converted)
T3 construct: 60 nM FIXa; purchased
Method: Xase inhibitory activity assay: Detection was performed according to kit instructions and literature methods by combining the Factor VIII and […]. Specifically, to each well of a 96-well plate, 30 μL of test solution, control solution, or Tris-HCl buffer (negative control) was added, and 30 μl of FVIII (2 IU/ml), 30 μl of R2 (60 nM FIXa, containing FIIa, PC/PS, Ca^2+) were sequentially added, mixed by shaking the plate, incubated at 37° C. for 2 min; and then 30 μL of R1 (50 nM FX, containing direct thrombin inhibitor) was added, mixed by shaking the plate, incubated at 37° C. for 1 min; and then 30 μL of R3 (FXa chromogenic substrate SXa-11, about 8.4 mM) was added. The absorbance at 405 nm (OD405) was detected with a microplate reader, continuously measuring for 7.5 min at a interval of 30 s. The Xase activity and IC50 value of Xase inhibition of the test sample were calculated based on the OD405 change value.
as §1, §2

FIIa (Homo sapiens) [4] = molecular target: T4, FIIa (Homo sapiens); experiment: HC-II-dependent IIa inhibitory activity assay; conditions: in presence of HC-II; read-out: Drug concentration required to inhibit 50% of coagulation factor activity (IC50, ng/mL) Ha (HC-II) (converted)
T4 construct: antithrombin (i.e., active coagulation factor IIa)
Method: HC-II-dependent IIa inhibitory activity assay: 30 μL of sample, control solution or Tris-HCl buffer (negative control) was added, 30 μL of 1 μM HCII solution was added, and incubated at 37° C. for 2 min; and then 30 μL of 20 NIH/mL FIIa was added, and incubated at 37° C. for 1 min; and finally 30 μL of pre-warmed 4.5 mM FIIa chromogenic substrate CS-01 (38) was added. OD405 was detected by a microplate reader and the IC50 value of FIIa inhibition of each sample was calculated.
as §1, with “B=(IC50)^n/{(IC50)^n+[I]^n} […]” for “B=(IC50)^n/{(IC50)^n+[I]^n}”
T4 sequence (P05546 20-499): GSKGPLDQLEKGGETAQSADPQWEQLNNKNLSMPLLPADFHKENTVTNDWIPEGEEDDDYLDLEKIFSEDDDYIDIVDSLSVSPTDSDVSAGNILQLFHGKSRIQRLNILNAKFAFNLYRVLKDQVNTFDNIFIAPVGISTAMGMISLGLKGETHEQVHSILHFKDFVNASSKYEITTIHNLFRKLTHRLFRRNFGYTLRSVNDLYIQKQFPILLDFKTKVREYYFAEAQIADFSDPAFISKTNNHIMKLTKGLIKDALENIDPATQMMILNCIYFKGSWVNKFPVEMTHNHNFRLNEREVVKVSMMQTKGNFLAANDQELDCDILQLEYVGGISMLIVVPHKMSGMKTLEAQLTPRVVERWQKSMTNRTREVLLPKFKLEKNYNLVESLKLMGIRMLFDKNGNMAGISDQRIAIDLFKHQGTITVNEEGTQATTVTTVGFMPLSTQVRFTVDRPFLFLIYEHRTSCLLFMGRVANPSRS

T1 sequence (P01008 33-464): as the sequence (P01008 33-464) above
T3 sequence (P00740 47-191 limits assumed): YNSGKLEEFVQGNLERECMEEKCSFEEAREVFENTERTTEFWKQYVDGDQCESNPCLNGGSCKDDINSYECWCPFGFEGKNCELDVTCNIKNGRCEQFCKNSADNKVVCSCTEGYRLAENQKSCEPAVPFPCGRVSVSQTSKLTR
T3 sequence (P00740 227-461 limits assumed): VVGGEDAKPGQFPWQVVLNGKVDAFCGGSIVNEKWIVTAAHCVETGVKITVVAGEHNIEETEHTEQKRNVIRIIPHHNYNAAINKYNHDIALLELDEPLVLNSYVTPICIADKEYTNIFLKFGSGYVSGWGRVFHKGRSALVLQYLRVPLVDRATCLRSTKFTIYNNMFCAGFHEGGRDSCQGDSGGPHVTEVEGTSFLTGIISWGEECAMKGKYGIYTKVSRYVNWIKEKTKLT

| Molecule | IC50 (FXa (Homo sapiens)) | Drug concentration required for multiplication of coagulation time (μg/mL) APTT (human-controlled plasma [1]) | IC50 (FIIa (Homo sapiens) [2]) | Drug concentration required for multiplication of coagulation time (μg/mL) PT (human-controlled plasma [3]) | Drug concentration required for multiplication of coagulation time (μg/mL) TT (plasma) | IC50 (intrinsic factor Xase) | IC50 (FIIa (Homo sapiens) [4]) | Drug concentration required to inhibit 50% of coagulation factor activity (IC50, ng/mL) Xa (AT) (FXa (Homo sapiens)) | Drug concentration required to inhibit 50% of coagulation factor activity (IC50, ng/mL) Ha (AT) (FIIa (Homo sapiens) [2]) | Drug concentration required to inhibit 50% of coagulation factor activity (IC50, ng/mL) Xase (intrinsic factor Xase) |
| --- | --- | --- | --- | --- | --- | --- | --- | --- | --- | --- |
| CC(=O)N[C@H]1[C@H](O[C@@H]([C@H](O[C@@H]2O[C@@H](C)[C@@H](OS(=O)(=O)O)[C@@H](OS(=O)(=O)O)[C@@H]2O)[C@@H](O)CO)[C@H](O)C(=O)O)O[C@H](COS(=O)(=O)O)[C@H](OS(=O)(=O)O)[C@@H]1O[C@@H]1OC(C(=O)O)=C[C@H](O[C@@H]2O[C@@H](C)[C@@H](OS(=O)(=O)O)[C@@H](OS(=O)(=O)O)[C@@H]2O)[C@H]1O [Compound B1, L-Fuc3S4S-(α1,3)-L-ΔUA-(α1,3)-{D-GalNAc4S6S-(β1,4)-[L-Fuc3S4S-(α1,3)]-D-GlcA-(β1,3)}˜-D-GalNAc4S6S-(β1,4)-[L-Fuc3S4S-(α1,3)]-D-GlcA-ol] | > 3760 nM | 53.9 µg/mL | > 3760 nM | # (>128 μg/mL) | # (>128 μg/mL) | 639 nM | 530 nM |  |  |  |
| CC(=O)N[C@H]1[C@H](O[C@H]2[C@H](O[C@@H]3O[C@@H](C)[C@@H](OS(=O)(=O)O)[C@@H](OS(=O)(=O)O)[C@@H]3O)[C@@H](O)C(O)O[C@@H]2C(=O)O)O[C@H](COS(=O)(=O)O)[C@H](OS(=O)(=O)O)[C@@H]1O[C@@H]1OC(C(=O)O)=C[C@H](O[C@@H]2O[C@@H](C)[C@@H](OS(=O)(=O)O)[C@@H](OS(=O)(=O)O)[C@@H]2O)[C@H]1O (stereo partly drawn) [Compound B6, L-Fuc3S4S-(α1,3)-L-ΔUA-(α1,3)-{D-GaNAc4S6S-(β1,4)-[L-Fuc3S4S-(α1,3)]-D-GlcA-(β1,4)}˜-D-GalNAc4S6S-(β1,4)-[L-Fuc3S4S-(α1,3)]-D-GlcA] | > 3760 nM | 50.2 µg/mL | > 3760 nM | # (>128 μg/mL) | # (>128 μg/mL) | 1260 nM | 615 nM |  |  |  |
| CC(=O)NC1C(OC2C(C(=O)O)OC(OC3C(NC(C)=O)C(OC4C(C(=O)O)OC(OCc5ccccc5)C(O)C4OC4OC(C)C(OS(=O)(=O)O)C(O)C4OS(=O)(=O)O)OC(COS(=O)(=O)O)C3OS(=O)(=O)O)C(O)C2OC2OC(C)C(OS(=O)(=O)O)C(O)C2OS(=O)(=O)O)OC(COS(=O)(=O)O)C(OS(=O)(=O)O)C1OC1OC(C(=O)O)=CC(OC2OC(C)C(OS(=O)(=O)O)C(O)C2OS(=O)(=O)O)C1O [Compound B9, L-Fuc2S4S-(α1,3)-L-ΔUA-(α1,3)-D-GaNAc4S6S-(D1,4)-[L-Fuc2S4S-(α1,3)]-D-GlcA-(β1,3)-D-GalNAc4S6S-(β1,4)-[L-Fuc2S4S-(α1,3)]-D-1-Benzyl-GlcA-ol] | > 2210 nM | 7.6 µg/mL | > 2210 nM | # (>128 μg/mL) | # (>128 μg/mL) | 26.3 nM |  |  |  |  |
| COC(=O)C1=CC(OC2OC(C)C(OS(=O)(=O)O)C(O)C2OS(=O)(=O)O)C(O)C(OC2C(NC(C)=O)C(OC3C(C(=O)OC)OC(OC4C(NC(C)=O)C(OC5C(C(=O)OC)OC(OCc6ccccc6)C(O)C5OC5OC(C)C(OS(=O)(=O)O)C(O)C5OS(=O)(=O)O)OC(COS(=O)(=O)O)C4OS(=O)(=O)O)C(O)C3OC3OC(C)C(OS(=O)(=O)O)C(O)C3OS(=O)(=O)O)OC(COS(=O)(=O)O)C2OS(=O)(=O)O)O1 [Compound B10, L-Fuc2S4S-(α1,3)-L-6-Methyl-ΔUA-(α1,3)-D-GaNAc4S6S-(β1,4)-[L-Fuc2S4S-(α1,3)]-D-6-Methyl-ΔUA-GlcA-(β1,3)-D-GalNAc4S6S-(β1,4)-[L-Fuc2S4S-(α1,3)]-D-O-1-Benzyl-6-Methyl-GlcA] | > 2170 nM | 7.9 µg/mL | > 2170 nM | # (>128 μg/mL) | # (>128 μg/mL) | 26.7 nM |  |  |  |  |
| CCOC(=O)c1ccc(NCC(O)C(OC2OC(C)C(OS(=O)(=O)O)C(O)C2OS(=O)(=O)O)C(OC2OC(COS(=O)(=O)O)C(OS(=O)(=O)O)C(OC3OC(C(=O)O)C(OC4OC(COS(=O)(=O)O)C(OS(=O)(=O)O)C(OC5OC(C(=O)O)C(OC6OC(COS(=O)(=O)O)C(OS(=O)(=O)O)C(OC7OC(C(=O)O)=CC(OC8OC(C)C(OS(=O)(=O)O)C(O)C8OS(=O)(=O)O)C7O)C6NC(C)=O)C(OC6OC(C)C(OS(=O)(=O)O)C(O)C6OS(=O)(=O)O)C5O)C4NC(C)=O)C(OC4OC(C)C(OS(=O)(=O)O)C(O)C4OS(=O)(=O)O)C3O)C2NC(C)=O)C(O)C(=O)O)cc1 [Compound B11, L-Fuc2S4S-(α1,3)-L-ΔUA-(α1,3)-{D-GalNAc4S6S-(β1,4)-[L-Fuc2S4S-(α1,3)]-D-GlcA-(β1,3)}2-D-GalNAc4S6S-(β1,4)-[L-Fuc2S4S-(α1,3)]-D-1-deoxy-1-amino-GlcA-ol-N-4-benzoic ethyl ester] | > 1580 nM | 6.3 µg/mL | > 1580 nM | # (>128 μg/mL) | # (>128 μg/mL) | 9.56 nM |  |  |  |  |
| L-Fuc2S4S-(α1,3)-ΔUA-(α1,3)-{D-GaNAc4S6S-(β1,4)-[L-Fuc2S4S-(α1,3)]-D-GlcA-(β1,3)}n+1-D-GalNAc4S6S-ol [Compound A1] |  | 60.1 µg/mL |  | # (>128 μg/mL) | # (>128 μg/mL) |  |  | ## (>5000 ng/mL) | ## (>5000 ng/mL) | ## (>5000 ng/mL) |
